Data from US20230139328A1, “DOSAGE FORMS FOR IMPROVING ORGAN TRANSPLANTATION, GRAFT VERSUS HOST DISEASE AND STEM CELLS TRANSPLANTS” (Aphios Corporation, priority 2020, published 2023).
“Also recorded” adds a separate entry of the source.

Assays:
[1] = system: neutrophil migration across confluent HMECs; assay: LTB4 induced neutrophil migration across HMEC monolayers (transwell, MPO assay); format: cell-based, human; settings: for effect on LTB4 induced neutrophil migration at 1 nM / effect on LTB4 induced neutrophil TEM at higher doses (100 nM): 1 h pretreatment, 100 nM LTB4; for effect on LTB4 induced neutrophil migration (dose response): 1 h pretreatment at 1-100 nM, 100 nM LTB4, 3 h migration
Method: FIG. 6 graphically depicts protection against LTB4 induced PMN TEM with PMA up to 48 h after pretreatment. HMECs were pretreated for 1 h with PMA and washed with HBSS three times to remove PMA prior to replacement of culture medium. Neutrophil migration studies were then performed at 0, 24, or 48 hours. Migration was stimulated by adding 500,000 neutrophils to the top well and 100 nM LTB4 to the lower well at 0, 24, and 48 hours after PMA pretreatment. […] PMA (100 nM, (10^−7M) reduced LTB4 induced migration up to 48 hours after 1 h of endothelial-specific pretreatment (***p<0.001).
Referring now to FIG. 7, FIG. 7 graphically depicts protection from LTB4 induced PMN TEM with Bryostatin-1 up to 48 hours after pretreatment. HMECs were pretreated for 1 h with Bryostatin-1 and washed with HBSS three times to remove Bryostatin-1 prior to replacement of culture medium. Neutrophil migration studies were then performed at 0, 24, or 48 hours. Migration was stimulated by adding 500,000 neutrophils to the top well and 100 nM LTB4 to the lower well at 0, 24, and 48 hours after Bryostatin-1 pretreatment. […] Bryostatin-1 (100 nM) reduced LTB4 induced migration up to 48 hours after 1-hour endothelial pretreatment (***p<0.001).
Cell Culture: HMECs were a generous gift from Dr. Francisco Candal (Centers for Disease Control), and are derived from the subcutaneous microvasculature. HMECs were maintained in MCDB-131 supplemented with 10% FCS, 1% antibiotic antimycotic, 10 ng/ml EGF, and […] hydrocortisone. The cell cultures were incubated at 37° C. in a humidified atmosphere with 7.5% CO2 and expanded by brief trypsinization (0.25% trypsin in phosphate-buffered saline containing 0.02% EDTA). HMECs were seeded onto 8 μm inserts for migration assays and 48-well plates for endothelial viability studies. Human umbilical vein endothelial cells (HUVECs) were harvested from umbilical cords by 0.25% collagenase treatment for 20 min at 37° C. HUVECs were maintained in Endothelial Growth Medium (EGM) supplemented with Bovine Brain Extract. The cell cultures were incubated at 37° C. in a 100% humidified atmosphere with 5% C02 and expanded by brief trypsinization. Primary passage HUVEC were seeded onto fibronectin coated (25 μg/ml)8 μm inserts for migration assays and 48-well plates for endothelial viability studies. Culture medium was replaced every second day. Cells were identified as endothelial cells by their cobblestone appearance at confluency, positive labeling with acetylated low density lipoprotein labeled with 1,11-dioctadecyl-1 3,3,31,31,3-tetramethylindocarbocyanine perchlorate (Dil-Ac-LDL; Biomedical Technologies, Inc.) and mouse antihuman factor […] (Calbiochem, San Diego, Calif.).
Neutrophil Isolation: Neutrophils were isolated using a Ficoll gradient. Whole blood was taken from human donors, and 5 ml was layered on top of two layers of Histopaque. Tubes were spun at 2,100 rpm for 40 min. The neutrophil layer was added to cold PBS and re-spun at 2,100 rpm for 5 min. Supernatant was removed and neutrophils were suspended in a fixed amount of PBS to determine cell count. Cells were kept on ice until assays were performed.
[…] Inserts were washed three times with Hank's Balanced Salt Solution (HBSS) (to eliminate drug effects on the neutrophils) and placed in a new plate containing either 500 μL 100 nM LTB4, or HBSS alone for control. 500 μL HBSS was then added to the top well and spiked with 500,000 neutrophils. For TNF-α experiments, HMECs were left in 20 ng/ml TNF-α in MCDB-131 for 24 h TNF-α was removed and HMECs washed three times. […] The drug was removed, and cells were washed three times. 500 μL HBSS was added to both upper and lower chambers and spiked with 500,000 neutrophils. Neutrophils were allowed to migrate for 3 h at 37° C. Migration was stopped by removing the inserts and migration was measured using the myeloperoxidase (MPO) assay.
Myeloperoxidase Assay: Neutrophil migration was measured using myeloperoxidase (MPO) analysis. […]

[2] = system: neutrophil adhesion to the endothelial monolayer; assay: LTB4 induced neutrophil adhesion to the endothelial monolayer; format: cell-based, human; settings: data not shown
Method: Turning now to FIG. 1, FIG. 1 graphically depicts neutrophil adhesion to and migration through human microvascular endothelial cell monolayers (HMECs) in a two-compartment system upon administration of an LTB4 gradient in the lower chamber over time. HMECs were plated on porous 8 μm (micron) transwell two-chamber inserts and allowed to reach confluency for migration assays. For the adhesion assay, HMECs were plated on 48-well plates. 100 nM LTB4 and 500,000 neutrophils were added to the upper compartment to initiate adhesion, while 500,000 neutrophils were added to the upper compartment and LTB4 to the lower compartment to initiate migration. Both neutrophil adhesion and migration were measured over 3 h and expressed as % change in adhesion and the fraction of migrated cells in chemoattractant stimulated experiments vs. controls which had no chemoattractant added. […]
Confluent HMEC monolayers were plated on 48-well plates for adhesion studies, transwells for migration studies, and pretreated with a variety of pharmacological inhibitors and activators for 1 hour. […] For adhesion assays, LTB4 was added along with 500,000 neutrophils and allowed to adhere for 1 h (time of max, adhesion as determined in FIG. 1). […] The data are shown as % change in migration and adhesion as assessed by MPO assay. All values are expressed as means+SE. […]

SMILES	effect on LTB4 induced neutrophil migration at 1 nM [1]	effect on LTB4 induced neutrophil TEM at higher doses (100 nM) [1]	effect on LTB4 induced neutrophil migration (dose response) [1]	effect on LTB4 induced adhesion to the endothelial monolayer [2]	time after pretreatment for which reduction of LTB4 induced migration is maintained, HMECs ([1]; single 1 h 100 nM pretreatment, washed, tested at 0, 24, 48 h)
CCCCCCCCCCCCCC(=O)O[C@@H]1[C@@H](C)[C@@]2(O)[C@@H](C=C(CO)C[C@]3(O)C(=O)C(C)=C[C@@H]23)[C@@H]2C(C)(C)[C@]12OC(C)=O [PMA, phorbol myristate acetate]	did not reduce PMN TEM; also recorded: had no effect	attenuated neutrophil TEM to levels below that of basal migration	dose-dependently reduced; also recorded: reduced LTB4 induced migration in a dose dependent manner	Neither PMA, nor Bryostatin-1 reduced LTB4 induced adhesion	
CCC/C=C/C=C/C(=O)O[C@H]1/C(=C/C(=O)OC)C[C@H]2C[C@H]([C@@H](C)O)OC(=O)C[C@H](O)C[C@@H]3C[C@H](OC(C)=O)C(C)(C)[C@](O)(C[C@@H]4C/C(=C/C(=O)OC)C[C@H](/C=C/C(C)(C)[C@]1(O)O2)O4)O3 [Bryostatin-1]	did not reduce PMN TEM	attenuated neutrophil TEM to levels below that of basal migration	dose-dependently reduced; also recorded: reduced LTB4 induced migration in a dose dependent manner	Neither PMA, nor Bryostatin-1 reduced LTB4 induced adhesion	48 h
